Results: publication PMC6081956 (ChemMedChem, 2018)
“Also recorded” adds a separate entry of the source. Like-named read-outs stand apart in the source and are kept apart here.

How the values were obtained:
CYP3A4 mRNA = format: cell-based; details: 10 µM 8-OHEFV co-incubated with 2 µM RIF, 48 h, primary human hepatocytes, p=0.004
[1] = tested on: PXR target gene Cyp3a11 mRNA; assay: Cyp3a11 mRNA expression; format: cell-based; details: PXR-humanized mouse hepatocytes, 10 µM, 72 h, normalized to GAPDH
PXR-LBD-SRC1p [2] = molecular target: T1, PXR-LBD-SRC1p (Homo sapiens, UniProt O75469); assay: Isothermal titration calorimetry; format: binding; details: for N value (stoichiometry, single-site binding model) / -TΔS° / ΔH° / ΔG°: direct ITC; for -TΔS° / ΔH°: 25°C; for ΔG°: from KD by ΔG° = -RTlnKD
T1 sequence (O75469 with tags, fused parts or gaps): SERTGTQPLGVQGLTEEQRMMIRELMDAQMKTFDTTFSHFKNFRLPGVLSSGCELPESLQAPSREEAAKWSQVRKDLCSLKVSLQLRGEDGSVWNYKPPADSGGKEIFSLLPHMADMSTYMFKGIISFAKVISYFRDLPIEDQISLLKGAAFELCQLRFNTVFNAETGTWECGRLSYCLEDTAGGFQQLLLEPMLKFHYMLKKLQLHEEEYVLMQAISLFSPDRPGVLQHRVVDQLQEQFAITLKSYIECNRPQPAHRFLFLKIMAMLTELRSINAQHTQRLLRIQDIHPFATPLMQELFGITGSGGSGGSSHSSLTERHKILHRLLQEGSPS

[3] = 129 patients receiving 600 mg of EFV per day, cited from earlier work
[4] = tested on: PXR target gene Cyp3a11 mRNA; assay: Cyp3a11 mRNA expression; format: cell-based; details: PXR-null mouse hepatocytes, 10 µM, 72 h
PXR-LBD-SRC1p [5] = molecular target: T1, PXR-LBD-SRC1p; assay: Competitive isothermal titration calorimetry; format: binding; details: for ΔG°: from KD of competitive ITC
PXR-LBD = molecular target: T2, PXR-LBD (Homo sapiens, UniProt O75469); assay: biochemical
T2 sequence (O75469 111-434): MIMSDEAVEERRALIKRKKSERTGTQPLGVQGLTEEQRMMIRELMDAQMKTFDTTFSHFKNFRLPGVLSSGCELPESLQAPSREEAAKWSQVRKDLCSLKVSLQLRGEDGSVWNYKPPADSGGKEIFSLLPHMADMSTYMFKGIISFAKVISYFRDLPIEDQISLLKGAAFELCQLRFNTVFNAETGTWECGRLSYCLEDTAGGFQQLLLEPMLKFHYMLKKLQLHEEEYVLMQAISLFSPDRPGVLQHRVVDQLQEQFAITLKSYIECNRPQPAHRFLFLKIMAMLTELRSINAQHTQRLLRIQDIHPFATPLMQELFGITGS

| Structure (SMILES) | Kd (PXR-LBD-SRC1p [2]) [µM] | -TΔS° (PXR-LBD-SRC1p [2]) [kcal/mol•K] | ΔH° (PXR-LBD-SRC1p [2]) [kJ/mol] | ΔG° (PXR-LBD-SRC1p [2]) [kJ/mol] | Kd (PXR-LBD-SRC1p [5]) [µM] | ΔG° (PXR-LBD-SRC1p [5]) [kJ/mol] | further results |
| --- | --- | --- | --- | --- | --- | --- | --- |
| O=C1Nc2ccc(Cl)cc2[C@@](C#CC2CC2)(C(F)(F)F)O1 [EFV, (S)-6-chloro-4-(cyclopropylethynyl)-4-(trifluoromethyl)-1,4-dihydro-2H-benzo[d][1,3]oxazin-2-one, reference compound] |  | −4.9 ±0.4 | -8.79 ± 1.3 | -28.9 ± 0.84 |  |  | N value (stoichiometry, single-site binding model) (PXR-LBD-SRC1p [2]): approximately 1.0; Cyp3a11 mRNA abundance [4]: no impact on Cyp3a11 mRNA abundance; plasma concentration ([3]; at 4 weeks ref 7): 10.61 ± 1.11 µM; plasma concentration ([3]; at 16 weeks ref 7): 10.33 ± 0.98 µM |
| CCCC#CC1(C(F)(F)F)OC(=O)Nc2ccc(Cl)cc21 (stereo not shown) [analog 4, 6-chloro-4-(pent-1-yn-1-yl)-4-(trifluoromethyl)-1,4-dihydro-2H-benzo[d][1,3]oxazin-2-one] | 78.7 ± 15.3 | −4.5 ±0.2 | -4.6 ± 0.42 | -23.4 ± 0.42 |  |  |  |
| COc1ccc(CNc2ccc(Cl)cc2[C@](O)(C#CC2CC2)C(F)(F)F)cc1 [analog 5, (R)-2-(5-chloro-2-((4-methoxybenzyl)amino)phenyl)-4-cyclopropyl-1,1,1-trifluorobut-3-yn-2-ol] |  |  |  |  | 14.5 ± 4.3 | -27.6 ± 0.42 |  |
| COc1ccc(CNc2ccc(Cl)cc2[C@@](O)(C#CC2CC2)C(F)(F)F)cc1 [analog 6, (S)-2-(5-chloro-2-((4-methoxybenzyl)amino)phenyl)-4-cyclopropyl-1,1,1-trifluorobut-3-yn-2-ol] |  |  |  |  | 9.5 ± 2.7 | -28.5 ± 0.84 |  |
| COc1ccc(C(=O)Nc2ccc(Cl)cc2C(O)(C#CC2CC2)C(F)(F)F)cc1 (stereo not shown) [analog 7, N-(4-chloro-2-(4-cyclopropyl-1,1,1-trifluoro-2-hydroxybut-3-yn-2-yl)phenyl)-4-methoxybenzamide] |  |  |  |  | 4.2 ± 1.1 | -30.5 ± 0.84 | Cyp3a11 mRNA levels, fold change from DMSO control [1]: 37 fold |
| COc1ccc(C2Nc3ccc(Cl)cc3[C@@](C#CC3CC3)(C(F)(F)F)O2)cc1 (stereo partly drawn) [analog 9, (S)-6-chloro-4-(cyclopropylethynyl)-2-(4-methoxyphenyl)-4-(trifluoromethyl)-1,4-dihydro-2H-benzo[d][1,3]oxazine] |  |  |  |  |  |  | IC50 (PXR-LBD): 39.3 ± 24.1 µM |
| Nc1ccc(Cl)cc1C(=O)C(F)(F)F [analog 10, 1-(2-amino-5-chlorophenyl)-2,2,2-trifluoroethan-1-one] |  |  |  |  | > 400 |  | Cyp3a11 mRNA levels, fold change from DMSO control [1]: no change in the Cyp3a11 mRNA levels |

Now from value to molecule, other results behind:

| Kd (PXR-LBD-SRC1p [2]) [µM] | -TΔS° (PXR-LBD-SRC1p [2]) [kcal/mol•K] | ΔH° (PXR-LBD-SRC1p [2]) [kJ/mol] | ΔG° (PXR-LBD-SRC1p [2]) [kJ/mol] | Kd (PXR-LBD-SRC1p [5]) [µM] | ΔG° (PXR-LBD-SRC1p [5]) [kJ/mol] | Structure (SMILES) | further results |
| --- | --- | --- | --- | --- | --- | --- | --- |
| 7.9 ± 7.7 | −3.8 ± 1.5 | -13 ± 5.02 | -28.9 ± 1.3 |  |  | O=C1Nc2c(O)cc(Cl)cc2[C@@](C#CC2CC2)(C(F)(F)F)O1 [8-OHEFV, (S)-6-chloro-4-(cyclopropylethynyl)-8-hydroxy-4-(trifluoromethyl)-1,4-dihydro-2H-benzo[d][1,3]oxazin-2-one] | decrease in CYP3A4 mRNA induction as compared to 2 µM RIF alone (CYP3A4 mRNA): ~20%; Cyp3a11 mRNA levels, fold change from DMSO control [1]: did not result in modulation of Cyp3a11 mRNA levels; also recorded: did not result in a change in Cyp3a11 mRNA levels; N value (stoichiometry, single-site binding model) (PXR-LBD-SRC1p [2]): approximately 1.0; plasma concentration ([3]; at 4 weeks ref 7): 6.51 ± 0.87 µM; plasma concentration ([3]; at 16 weeks ref 7): 6.84 ± 1.06 µM |
| 14.9 ± 2.6 | −4.8 ±0.3 | -7.53 ± 0.42 | -27.6 ± 0.42 |  |  | FC(F)(F)[C@@]1(C#CC2CC2)OCNc2ccc(Cl)cc21 [analog 8, (S)-6-chloro-4-(cyclopropylethynyl)-4-(trifluoromethyl)-1,4-dihydro-2H-benzo[d][1,3]oxazine] |  |
| 10.9 ± 1.8 | −5.1 ±0.2 | -6.69 ± 0.84 | -28.5 ± 0.42 |  |  | O=C1Oc2ccc(Cl)cc2C(C#CC2CC2)(C(F)(F)F)O1 (stereo not shown) [analog 15, 6-chloro-4-(cyclopropylethynyl)-4-(trifluoromethyl)-4H-benzo[d][1,3]dioxin-2-one] |  |
|  |  |  |  | 10.5 ± 1.5 | -28.5 ± 0.84 | O=C1Cc2ccc(Cl)cc2C(C#CC2CC2)(C(F)(F)F)O1 (stereo not shown) [analog 16, 7-chloro-1-(cyclopropylethynyl)-1-(trifluoromethyl)isochroman-3-one] |  |
